Measurements from patent EP4119128A1, “PHARMACEUTICAL COMPOSITION FOR THE ORAL ADMINISTRATION OF POORLY SOLUBLE DRUGS COMPRISING AN AMORPHOUS SOLID DISPERSION” (Dr. Falk Pharma GmbH, priority 2021, dated 2023).
Counter-ions that a name gives are not always drawn. Like-named read-outs stand apart in the source and are kept apart here.

Legend:
[1] = Saturation solubility, shake-flask method, quantification by HPLC/UV; assay type: physicochemical; conditions: 0.01 N HCl, 37 °C, pH 2, simulated gastric fluid, thermodynamic from solid, 0.01 N HCl pH 2; 24 h at 37°C
[2] = Hygroscopicity of the drug substance; assay type: physicochemical
[3] = Saturation solubility, shake-flask method, quantification by HPLC/UV; assay type: physicochemical; conditions: for solubility at 24 h: 37 °C, thermodynamic from solid
Procedure: The saturation solubility of RhuDex® choline salt determined at 37°C after 24 hours by HPLC/UV using the shake-flask method is at around or below 0.001 mg/mL when using standard media or buffers such as 0.1 N hydrochloric acid pH 1.2 and 50 mM phosphate buffer pH 7.0 or biorelevant media such as Fasted-State Simulated Intestinal Fluid (i.e. FaSSIF) pH 6.5 and Fed-State Simulated Intestinal Fluid (FeSSIF) pH 5.0.
When increasing the pH value above the pKa and beyond the physiological conditions (i.e. pH > 8), the opposite effect occurs as the molecule is transferred into its negatively charged and soluble ion. […] However, these enabling technologies are neither standard nor easily applicable as they directly affect the physical properties of the drug substance and thereby its thermodynamic stability. Therefore, there is an extremely high risk of failure associated with these technologies concluding that the drug substance cannot be further developed into a suitable, stable, bioavailable and commercially viable formulation. Table 2: Saturation solubility of RhuDex® choline salt in biorelevant media (shake-flask method, 24 h at 37°C, quantification by HPLC/UV)

[4] = system: monolayers formed by human colon carcinoma cell line Caco-2; experiment: Apparent permeation across Caco-2 cell monolayers; assay type: in vitro ADME; conditions: Caco-2 cell monolayers; 127 µg/ml
Procedure: (§1) The biorelevant dissolution profile of the embodiment positively affects the second relevant parameter predicting the compound's oral bioavailability, i.e. its permeability. As shown in apparent permeation studies across monolayers formed by human colon carcinoma cell line Caco-2 the spring and parachute effect observed for formulated RhuDex® choline salt also leads to a higher permeation rate when compared with its crystalline and unformulated counterpart. The permeation assays were performed using an apical buffer at a pH value of 7.0 and a basolateral buffer at a pH value of 7.4. The test concentration was set to 127 µg/ml and should represent a potential clinical dose of 31.75 mg RhuDex® choline salt administrered in a volume of 250 ml (i.e. 31.75 mg/250 ml = 0.127 mg/ml). With an apparent permeation value (Papp) of less than 1 (i.e. 0.12 x 10^-6 cm/s) the permeability of crystalline RhuDex® choline salt across Caco-2 cell monolayers must be classified as poor and a low bioavailability of unformulated drug substance can be estimated. However, the Papp value increased to 2.7 x 10^-6 cm/s when using an amorphous solid dispersion of RhuDex® choline salt in the same experiment indicating a remarkable shift from low to moderate permeability. This effect can be cleary attributed to the embodiment.

[5] = Apparent permeation across Caco-2 cell monolayers; assay type: in vitro ADME, human; conditions: human, Caco-2; apical buffer pH 7.0, basolateral buffer pH 7.4; test concentration 127 µg/ml
Procedure: as §1

[6] = Two-stage biorelevant in vitro dissolution test (acid stage pH 2.0, buffer stage pH 7.0, non-sink conditions); assay type: physicochemical
Text: To characterize the in vitro performance of the gastro-resistant granules that contain the RhuDex® choline salt as an amorphous solid dispersion a predictive biorelevant dissolution method has been developed. The design of the method comprises a two-stage in vitro dissolution test that simulates the conditions of the gastrointestinal passage. In a first step the formulation is exposed to simulated gastric fluid where the enteric protection provided by the outer hypromellose succinate acetate layer should ensure that there is no premature drug substance release from the granules. The subsequent step simulates the condition of the upper intestine where the enteric polymer should immediately dissolve and where the drug substance release should start. The gastro-resistance and the release profile are measured by the amount of RhuDex® choline salt dissolved in the acid and buffer medium. The established test system relies on the use of standard media and buffer systems without the addition of any surfactants or bile acids. […] The extent of the spring and parachute effect should be measurable in the simulated intestinal fluid. The parameters of the biorelevant dissolution method are presented below. Summarizing the established conditions for testing the biorelevant dissolution of RhuDex® choline salt gastro-resistant granules, the studies are conducted under non-sink conditions as follows: […]

[7] = pKa value of the drug substance; assay type: physicochemical; conditions: free acid

Structure (SMILES) | solubility at 24 h [1] [µg/mL] | hygroscopicity [2] | biopharmaceutics classification system (BCS) class [3] | solubility at 24 h ([3]; 50 mM borate buffer, pH 9.5, aqueous buffer, 50 mM borate buffer, pH 9.5, read-out: solubility) [µg/mL] | solubility at 24 h ([3]; 50 mM phosphate buffer, pH 7, aqueous buffer, Phosphate buffer 50 mM, pH 7.0, 24 h at 37°C, read-out: Saturation solubility) [µg/mL] | solubility at 24 h ([3]; 50 mM phosphate buffer, pH 7, aqueous buffer, pH 7.0, read-out: solubility of the drug substance) [µg/mL] | solubility at 24 h ([3]; aqueous buffer, 37°C, 24 hours, shake-flask, 0.1 N hydrochloric acid pH 1.2, 50 mM phosphate buffer pH 7.0, FaSSIF pH 6.5, FeSSIF pH 5.0, read-out: saturation solubility) [µg/mL] | solubility at 24 h ([3]; FaSSIF, pH 6.5, fassif, FaSSIF, pH 6.5, 24 h at 37°C, read-out: Saturation solubility) [µg/mL] | solubility at 24 h ([3]; FeSSIF, pH 5, fessif, FeSSIF, pH 5.0, 24 h at 37°C, read-out: Saturation solubility) [µg/mL] | volume required to completely dissolve one dose ([3]; dose 31.75 mg, minimum solubility 0.001 mg/mL, physiologically relevant conditions) | solubility at 24 h ([3]; water, pH 9.9, water, in water, final pH value of the solution 9.9, read-out: solubility) [µg/mL] | permeability classification [4] | Papp at 127 µg/ml [5] [×10⁻⁶ cm/s] | amount in solution when presented in crystalline form ([6]; 0.001 mg/ml x 460 ml, buffer pH 7.0) [mg] | dose in solution when presented in crystalline form ([6]; calculated from solubility 0.001 mg/ml in 460 ml buffer pH 7.0, dose 31.75 mg) [%] | pKa [7]
O=C(NCC(F)F)c1ccc(-n2[nH]c3c(nnc4c(F)cccc43)c2=O)cc1 [RhuDex® choline salt, N-(2,2-difluoroethyl)-4-(6-fluoro-3-oxo-1,3-dihydropyrazolo[4,3-c]cinnolin-2-yl)-benzamide] | 0.1 | only slightly hygroscopic | either Class II (low solubility/high permeability) or Class IV (low solubility/low permeability) | 1300 | 0.7 | ~1 | ≤ 1 | 1.1 | 0.1 | more than 30 L | ~10000 | poor | 0.12 | 0.46 | 1.4 | 
O=C(NCC(F)F)c1ccc(-n2[nH]c3c(nnc4c(F)cccc43)c2=O)cc1 [RhuDex® free acid, 4-(6-fluoro-3-oxo-1,3-dihydro-pyrazolo[4,3-c]cinnolin-2-yl)-N-(2,2-difluoro-ethyl)-benzamide] |  |  |  |  |  |  |  |  |  |  |  |  |  |  |  | 5.8
